Data published in publication PMC8284461, “Piperidine-4-Carboxamides Target DNA Gyrase in Mycobacterium abscessus” (Antimicrobial Agents and Chemotherapy, 2021).
pIC50: −log10 of the molar value. Converted amounts (≈) assume the structure as drawn.

How the values were obtained:
Plasma stability [1] = assay type: in vitro ADME, rhesus monkeys; settings: monkey plasma, 37°C, 1 μg/ml
Protocol: (§1) The plasma stability assays were carried out using plasma from female CD-1 mice, New Zealand white rabbits, rhesus monkeys, and humans containing K2EDTA anticoagulant (Bioreclamation). Stability samples consisted of 5 μl of stock compound solution in 50:50 ACN/water and 95 μl of plasma to a final concentration of 1 μg/ml. The samples were incubated at 37°C with shaking; 10 μl of plasma was removed at each time point and combined with 100 μl of ACN/methanol 50:50 protein precipitation solvent containing internal standard (10 ng/ml verapamil). Chromatography for metabolite identification was performed the same as specified for pharmacokinetic sample analysis. Full scan total ion chromatograms (TIC) of plasma extracts were acquired using a Q Exactive high-resolution mass spectrometer (QE-HRMS) at 70,000 mass resolution. Thermo Fisher Compound Discoverer software was used to assist in identifying the 844-TFM metabolites from the QE-HRMS TIC mass spectrum. Figure S2 in the supplemental material illustrates the extracted ion chromatograms (XIC) of 844-TFM and the metabolites using 5 ppm mass accuracy before and after 12 h of incubation in mouse plasma.

[2] = test system: M. abscessus subsp. abscessus Bamboo 844^r-3 (GyrB S473W); experiment: MIC, resistant mutant; assay type: cell-based, Mycobacterium abscessus; settings: Mycobacteroides abscessus
[3] = test system: M. abscessus subsp. abscessus ATCC 19977 MXF^r-2 (GyrA D96N); experiment: MIC, resistant mutant; assay type: cell-based, Mycobacterium abscessus; settings: Mycobacteroides abscessus, ATCC19977
[4] = target: recombinant M. abscessus wild-type DNA gyrase (Mycobacteroides abscessus, UniProt B1ME45+B1ME58); experiment: biochemical; set-up: species or system Mycobacterium abscessus
recombinant M. abscessus wild-type DNA gyrase, sequence (B1ME58 entry or part of it): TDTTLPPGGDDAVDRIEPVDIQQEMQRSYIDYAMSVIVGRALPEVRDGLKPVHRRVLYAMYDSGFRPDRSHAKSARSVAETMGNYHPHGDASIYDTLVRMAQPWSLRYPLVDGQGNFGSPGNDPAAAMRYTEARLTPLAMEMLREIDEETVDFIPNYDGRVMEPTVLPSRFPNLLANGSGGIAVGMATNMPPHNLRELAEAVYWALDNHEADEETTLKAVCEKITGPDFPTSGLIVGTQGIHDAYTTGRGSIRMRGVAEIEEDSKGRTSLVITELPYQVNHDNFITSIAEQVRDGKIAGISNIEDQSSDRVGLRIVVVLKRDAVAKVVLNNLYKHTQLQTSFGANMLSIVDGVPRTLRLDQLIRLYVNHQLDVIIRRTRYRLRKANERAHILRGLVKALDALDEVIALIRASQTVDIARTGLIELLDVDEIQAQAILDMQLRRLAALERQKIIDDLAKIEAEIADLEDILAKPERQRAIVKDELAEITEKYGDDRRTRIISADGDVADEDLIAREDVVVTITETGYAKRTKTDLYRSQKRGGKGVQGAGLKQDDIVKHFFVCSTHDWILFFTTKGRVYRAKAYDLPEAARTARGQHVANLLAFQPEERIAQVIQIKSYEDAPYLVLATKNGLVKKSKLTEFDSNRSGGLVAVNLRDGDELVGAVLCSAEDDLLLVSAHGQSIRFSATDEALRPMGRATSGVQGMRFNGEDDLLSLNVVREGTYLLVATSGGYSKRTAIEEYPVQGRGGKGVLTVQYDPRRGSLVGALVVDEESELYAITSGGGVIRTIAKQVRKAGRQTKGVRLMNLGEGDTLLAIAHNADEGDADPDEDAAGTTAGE
recombinant M. abscessus wild-type DNA gyrase, sequence (B1ME45 entry or part of it): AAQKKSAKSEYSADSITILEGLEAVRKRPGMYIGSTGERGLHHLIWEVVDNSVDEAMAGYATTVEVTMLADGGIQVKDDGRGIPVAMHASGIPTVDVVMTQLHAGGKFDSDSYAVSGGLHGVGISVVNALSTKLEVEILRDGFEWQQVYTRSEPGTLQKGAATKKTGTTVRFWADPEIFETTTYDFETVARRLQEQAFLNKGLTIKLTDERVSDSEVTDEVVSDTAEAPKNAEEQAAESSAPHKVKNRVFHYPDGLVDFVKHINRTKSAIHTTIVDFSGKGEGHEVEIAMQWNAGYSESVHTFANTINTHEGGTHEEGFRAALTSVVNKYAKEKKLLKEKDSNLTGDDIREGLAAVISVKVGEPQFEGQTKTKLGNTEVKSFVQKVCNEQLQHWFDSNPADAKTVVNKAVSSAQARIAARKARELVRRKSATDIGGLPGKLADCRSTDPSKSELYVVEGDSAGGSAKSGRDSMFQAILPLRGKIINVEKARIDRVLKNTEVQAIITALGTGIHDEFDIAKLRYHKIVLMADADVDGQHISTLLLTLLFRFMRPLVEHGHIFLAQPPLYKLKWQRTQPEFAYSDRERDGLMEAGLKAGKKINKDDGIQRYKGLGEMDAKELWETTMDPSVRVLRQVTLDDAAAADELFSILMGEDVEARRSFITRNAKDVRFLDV

[5] = test system: M. abscessus subsp. abscessus M199; experiment: MIC, broth microdilution; assay type: cell-based, Mycobacterium abscessus; settings: Mycobacteroides abscessus, 72 h, 90% growth inhibition, 3 days
Protocol: (§2) MIC was determined using the broth microdilution method in 96-well plates as described previously ([47]). Briefly, a 10-point 2-fold serial dilution of compounds was performed in 96-well plates (Costar 3370; Corning, USA) starting at twice the desired highest concentration. […] One hundred microliters of the bacterial suspension was seeded onto the 96-well plates containing 100 μl of the serially diluted compounds to give a final volume of 200 μl in each well with the final OD600 of 0.005. The plates were sealed with parafilm, placed onto wet paper towels in a lock-lock box and incubated for 3 days at 37°C with orbital shaking at 90 rpm. […] Absorbance values at day 3 were subtracted from the day 0 readout. Percent growth inhibition was calculated by dividing the absolute absorbance value of treated cells with untreated control and multiplying by 100. CLR was included in all MIC experiments as a positive control to monitor assay reproducibility. MIC was defined as 90% of growth inhibition relative to untreated controls.

[6] = test system: M. abscessus subsp. abscessus K21; experiment: MIC, broth microdilution; assay type: cell-based, Mycobacterium abscessus; settings: Mycobacteroides abscessus, 72 h, 90% growth inhibition, 3 days
Protocol: as §2

[7] = test system: M. abscessus subsp. abscessus M337; experiment: MIC, broth microdilution; assay type: cell-based, Mycobacterium abscessus; settings: Mycobacteroides abscessus, 72 h, 90% growth inhibition, 3 days
Protocol: as §2

[8] = test system: M. abscessus subsp. bolletii CCUG 50184T; experiment: MIC, broth microdilution; assay type: cell-based, Mycobacterium abscessus; settings: Mycobacteroides abscessus, 72 h, 90% growth inhibition, 3 days
Protocol: as §2

[9] = test system: M. abscessus subsp. abscessus M9; experiment: MIC, broth microdilution; assay type: cell-based, Mycobacterium abscessus; settings: Mycobacteroides abscessus, 72 h, 90% growth inhibition, 3 days
Protocol: as §2

[10] = test system: M. abscessus subsp. bolletii M506; experiment: MIC, broth microdilution; assay type: cell-based, Mycobacterium abscessus; settings: Mycobacteroides abscessus, 72 h, 90% growth inhibition, 3 days
Protocol: as §2

[11] = test system: M. abscessus subsp. abscessus ATCC 19977; experiment: MIC, broth microdilution; assay type: cell-based, Mycobacterium abscessus; settings: Mycobacteroides abscessus, ATCC19977, 72 h; abscessus ATCC 19977 wild type; 90% growth inhibition, 3 days
Protocol: as §2

[12] = test system: M. abscessus subsp. massiliense M111; experiment: MIC, broth microdilution; assay type: cell-based, Mycobacterium abscessus; settings: Mycobacteroides abscessus, 72 h, 90% growth inhibition, 3 days
Protocol: as §2

[13] = test system: M. abscessus subsp. abscessus M404; experiment: MIC, broth microdilution; assay type: cell-based, Mycobacterium abscessus; settings: Mycobacteroides abscessus, 72 h, 90% growth inhibition, 3 days
Protocol: as §2

[14] = test system: M. abscessus subsp. massiliense CCUG 48898T; experiment: MIC, broth microdilution; assay type: cell-based, Mycobacterium abscessus; settings: Mycobacteroides abscessus, 72 h, 90% growth inhibition, 3 days
Protocol: as §2

[15] = test system: M. abscessus subsp. abscessus Bamboo; experiment: MIC, broth microdilution; assay type: cell-based, Mycobacterium abscessus; settings: Mycobacteroides abscessus, 72 h; abscessus Bamboo wild type; 90% growth inhibition, 3 days
Protocol: as §2

[16] = test system: M. abscessus subsp. abscessus M421; experiment: MIC, broth microdilution; assay type: cell-based, Mycobacterium abscessus; settings: Mycobacteroides abscessus, 72 h, 90% growth inhibition, 3 days
Protocol: as §2

[17] = test system: M. abscessus subsp. bolletii M232; experiment: MIC, broth microdilution; assay type: cell-based, Mycobacterium abscessus; settings: Mycobacteroides abscessus, 72 h, 90% growth inhibition, 3 days
Protocol: as §2

[18] = test system: M. abscessus subsp. abscessus Bamboo 844^r-2 (GyrA D91N); experiment: MIC, resistant mutant; assay type: cell-based, Mycobacterium abscessus; settings: Mycobacteroides abscessus
[19] = test system: M. abscessus subsp. abscessus ATCC 19977 biofilm; experiment: Antibiofilm activity, MBEC biofilm assay; assay type: cell-based, Mycobacterium abscessus; settings: 1×, 4×, 8× MIC; surface-attached CFU after 2 and 3 days
Protocol: The antibiofilm activity of 844 and 844-TMF was determined employing the MBEC 96-well Biofilm assay kit (19111; Innovotech, Edmonton, AB, Canada) as described previously ([15]) with minor modifications. Briefly, exponentially growing M. abscessus subsp. abscessus ATCC 19977 cultures were spun down at 3,200 × g for 10 min and washed with 7H9 broth without Tween 80 (‘7H9’). Bacteria were resuspended in ‘7H9’ to an OD600 of 0.0125, and 150 μl was dispensed into the wells of Innovotech 96-well plates. Pegs (protruding from the specialized lids of the Innovotech multiwell plates) were inserted into the bacterial suspensions in the wells, and the cultures were grown 24 h with shaking at 110 rpm at 37°C to allow attachment and growth of the bacteria on the surface of the pegs. […] Biofilm growth on the pegs was measured by CFU determination. The pegs were washed in 200 μl ‘7H9’ medium, removed, and placed in 1.7-ml microcentrifuge tubes (87003-294; VWR, Radnor, PA, USA) containing 500 μl PBS/Tween 80 (0.025%). The tubes were vortexed at 2,000 rpm for 90 s to detach and suspend the bacteria from the pegs before samples were serially diluted and plated onto 7H10 agar supplemented with 0.4% activated charcoal to determine CFU/peg.

Plasma stability [20] = assay type: in vitro ADME, humans; settings: human plasma, 37°C, 1 μg/ml
Protocol: as §1

Kinetic solubility = assay type: physicochemical
Protocol: Kinetic solubility, parallel artificial membrane permeability assay (PAMPA) permeability, and stability in the mouse liver microsome assay were performed by BioDuro (Shanghai, China) according to standard protocols.

COc1ccc2nccc(NC(=O)C3CCN(CCc4ccc(C(F)(F)F)cc4)CC3)c2n1 [844-TFM]
remaining after 24 h (Plasma stability [1]): approximately 80%
MIC [2]: 5 µM (≈ 2.29 µg/mL)
MIC [3]: 2 µM (≈ 0.917 µg/mL)
IC50 fold lower than the IC50 of parental 844 [4]: 2.4 fold
pIC50 ([4]; wild-type DNA gyrase, relaxed pBR322 substrate, read-out: IC50, supercoiling activity): 5.72
MIC [5]: 6.3 µM (≈ 2.89 µg/mL)
MIC [6]: 3.5 µM (≈ 1.6 µg/mL)
MIC [7]: 3.1 µM (≈ 1.42 µg/mL)
MIC [8]: 2 µM (≈ 0.917 µg/mL)
MIC [9]: 3.1 µM (≈ 1.42 µg/mL)
MIC [10]: 3.1 µM (≈ 1.42 µg/mL)
MIC [11]: 1.5 µM (≈ 0.688 µg/mL)
MIC [12]: 6.3 µM (≈ 2.89 µg/mL)
MIC [13]: 1.6 µM (≈ 0.734 µg/mL)
MIC [14]: 2 µM (≈ 0.917 µg/mL)
MIC [15]: 1.5 µM (≈ 0.688 µg/mL)
MIC [16]: 1.6 µM (≈ 0.734 µg/mL)
MIC [17]: 1.6 µM (≈ 0.734 µg/mL)
MIC [18]: > 100 µM
bactericidal activity against M. abscessus grown as biofilm [19]: bactericidal
remaining after 24 h (Plasma stability [20]): approximately 80%
solubility (Kinetic solubility; pH 7.4): 390 µM (≈ 179 µg/mL)
solubility (Kinetic solubility; simulated gastric fluid, pH 2): 446 µM (≈ 205 µg/mL)
